Measured values published in US8273852B2, “Medium chain length polyhydroxyalkanoate polymer and method of making same” (Queen's University at Kingston, priority 2009, dated 2012).

Key:
[1] = tested on: Pseudomonas putida KT2440; experiment: Shake flask growth with acrylic acid, absorbance at 650 nm; type: cell-based; conditions: shake flasks
Procedure: A basic glucose-only shake flask medium was a 100 mL liquid medium in a 500 mL Erlenmeyer flask. The medium comprised (g L^−1): (NH4)2SO4 (4.70), MgSO4.7H2O (0.80), Na2HPO4.7H2O (12.0), KH2PO4 (2.70), glucose (9.0), nutrient broth (1.0).
The effect of acrylic acid on cell growth was determined using Pseudomonas putida KT2440 (ATCC 47054). Pseudonomas putida KT2440 (ATCC 47054) was maintained on nutrient agar plates at 4° C. before inoculation. The toxicity of a β-oxidation inhibitor, acrylic acid, to the growth of Pseudomonas putida KT2440 was determined by shake flask experiment. The cultivation conditions were 28° C. in a New Brunswick Shaker-Incubator at 200 rpm. The medium used was the basic glucose-only shake flask medium described above, plus appropriate amount of acrylic acid.
500 mL Erlenmeyer flasks were used with each containing 100 mL of medium. In addition to the basic medium described above, increasing concentrations of acrylic acid (AA) at 0, 0.2, 0.4, 0.8, 2.0 g/L were prepared in each flask. The first set of such flasks was cultured for 12 h and the second set of such flasks was cultured for 24 h. After the specified culturing time, a sample was taken to measure the absorbance at 650 nm in the spectrophotometer.

β-oxidation pathway [2] = experiment: Continuous fermentation, nonanoic acid as sole carbon source, increasing acrylic acid; type: cell-based, Pseudomonas putida KT2440
Procedure: (§1) Continuous fermentations were carried out in a 1.5 L stirred tank bioreactor (Bioflo IIc, New Brunswick Scientific, N.J., USA) with a working volume of 1.1 L. The fermentor was operated at 28.5±1° C. and the pH was automatically controlled at 6.85±0.05 using 2 N potassium hydroxide solution. The dissolved oxygen was monitored with an Ingold polarographic probe (available from Mettler-Toledo Ingold Inc., Bedford, Mass., USA) and maintained no lower than 30% air saturation with an aeration rate of 0.8 vvm (void volumes per minute) and an agitation speed up to 900 rpm. Nonanoic acid was fed separately at controlled speed by a peristaltic nutrient pump on the bioreactor. All other aqueous medium was mixed and fed together. The dilution rate of all continuous fermentations was controlled at […] by fixing the working volume and a constant aqueous medium feeding rate.
(§2) During shake flask, batch, fed-batch, or continuous cultivations, fermentation broth samples were taken. Known amounts of such broths were centrifuged to obtain the medium's supernatant and concentrated biomass. The biomasses were washed with distilled water, centrifuged again, re-suspended, frozen, and lyophilized to obtain dried biomass. The supernatant was used to analyze carbon source, inhibitor, and nutrient concentration. […]
(§3) Dried samples were weighed to obtain dry biomass amounts. PHA content and composition were determined by gas chromatographic method as described below (Sun, Z., et al. (2007). Appl. Microbiol. Biotechnol., 74:69). […]
(§4) Known amount of dried biomass, or purified MCL-PHA, or MCL-PHA standard with known composition and elution time of each of its components, were reacted in 2 mL chloroform plus 1 mL methanol containing 15% (v/v) concentrated sulfuric acid as acidifying agent and 0.2% (w/v) benzoic acid as internal standard, at 100° C. for 4 hours. […] Methyl-3-hydroxyalkanoate was identified and its molar amount was calculated by comparing peak area to the corresponding peak of known methyl-3-hydroxyalkanoate generated from known MCL-PHA standard, which was characterized by NMR and GC/MS. […]

β-oxidation pathway [3] = experiment: Continuous fermentation, cofeeding of nonanoic acid and glucose, increasing acrylic acid; type: cell-based, Pseudomonas putida KT2440; conditions: inhibitor concentration increased from 0 to 0.15 g/L; value at highest concentration
Procedure: as §1
During shake flask, batch, fed-batch, or continuous cultivations, fermentation broth samples were taken. Known amounts of such broths were centrifuged to obtain the medium's supernatant and concentrated biomass. […]
as §3

β-oxidation pathway [4] = experiment: Continuous fermentation, cofeeding of octanoic acid and glucose, increasing acrylic acid; type: cell-based, Pseudomonas putida KT2440; conditions: inflow acrylic acid 0.2 g/L
Procedure: as §1, with “Nonanoic acid was fed separately at controlled speed by a peristaltic nutrient pump on the bioreactor.” left out
as §2, with “biomass.” for “biomass. The supernatant was used to analyze carbon source, inhibitor, and nutrient concentration.”
as §3

β-oxidation pathway [5] = experiment: Fed-batch fermentation, cofeeding of nonanoic acid, glucose and acrylic acid; type: cell-based, Pseudomonas putida KT2440; conditions: nonanoic acid:glucose:acrylic acid 1.25:1:0.03 (w/w/w); by GC; throughout 32 hours fermentation
Procedure: Fed-batch fermentations were conducted in a 5 L stirred tank bioreactor with 3 L working volume (Minifors, INFORS HT, Bottmingen, Switzerland). The specific growth rate was controlled at 0.25 h^−1 or 0.15 h^−1 by exponentially feeding the carbon sources as growth-limiting nutrients. β-oxidation inhibitor was added with the glucose feeding solution at a fixed mass as specified in the related examples. […]
as §3, §4

β-oxidation pathway [6] = experiment: Continuous fermentation, cofeeding of dodecanoic acid and glucose, increasing acrylic acid; type: cell-based, Pseudomonas putida KT2440
Procedure: as §1, with “Nonanoic acid was fed separately at controlled speed by a peristaltic nutrient pump on the bioreactor.” left out
During shake flask, batch, fed-batch, or continuous cultivations, fermentation broth samples were taken. Known amounts of such broths were centrifuged to obtain the medium's supernatant and concentrated biomass. The biomasses were washed with distilled water, centrifuged again, re-suspended, frozen, and lyophilized to obtain dried biomass. The supernatant was used to analyze carbon source, inhibitor, and nutrient concentration. The dried biomass was used to obtain the cell concentration, cellular PHA content and composition.
as §3, §4

C=CC(=O)O [acrylic acid]
reduction of Absorbance at λ=650 nm ([1]; acrylic acid 0.2 g L^−1, 12 h and 24 h cultures, glucose medium): two fold
cell growth ([1]; acrylic acid greater than 0.4 g L^−1): either weak growth or no growth
PHA content (β-oxidation pathway [2]; acrylic acid 0.2 g L^−1, nonanoic acid only carbon source): very little PHA content
molar C9 fraction of the PHA produced (β-oxidation pathway [2]; at increased inhibitor concentration, nonanoic acid only, maximum reached): about 90%
acrylic acid concentration that affected monomeric composition (β-oxidation pathway [2]; inflow concentration, nonanoic acid only, steady state): 0.02 g/L
intracellular PHN content (β-oxidation pathway [3]): ~64%
mole percentage of C9 (β-oxidation pathway [3]): 96 mol %
mole percentage of C8 (β-oxidation pathway [4]): 98 mol %
monomeric composition, C9 (3-OH-nonanoate) (β-oxidation pathway [5]): 87.8±0.8 mol %
mole percentage of C12 (β-oxidation pathway [6]; inflow acrylic acid 0.2 g/L (FIG. 10B)): 60 mol %
molar C12 content (β-oxidation pathway [6]; inlet acrylic acid 0.1 g L^−1): 34.5%
molar C12 content (β-oxidation pathway [6]; inlet acrylic acid 0.2 g L^−1): 59%
